Tests used:
HepG2 [1] = experiment: Antiproliferative activity against human HepG2 cells after 48 hrs by MTT assay; type: functional, cell-based; conditions: HepG2, 48 h
MCF7 [2] = experiment: Antiproliferative activity against human MCF7 cells after 48 hrs by MTT assay; type: functional, cell-based; conditions: MCF7, 48 h
HepG2 [3] = experiment: Induction of apoptosis in human HepG2 cells assessed as live cells at 0.5 uM after 48 hrs by Annexin-V FITC/propidium iodide staining based flow cytometry (reference value: 86.49%); type: functional
HepG2 [4] = experiment: Induction of apoptosis in human HepG2 cells assessed as early apoptotic cells at 0.5 uM after 48 hrs by Annexin-V FITC/propidium iodide staining based flow cytometry (reference value: 6.62%); type: functional
HepG2 [5] = experiment: Induction of apoptosis in human HepG2 cells assessed as late apoptotic cells at 0.5 uM after 48 hrs by Annexin-V FITC/propidium iodide staining based flow cytometry (reference value: 5.53%); type: functional
HepG2 [6] = experiment: Induction of apoptosis in human HepG2 cells assessed as necrotic cells at 0.5 uM after 48 hrs by Annexin-V FITC/propidium iodide staining based flow cytometry (reference value: 1.36%); type: functional
HepG2 [7] = experiment: Potency index, ratio of sunitinib IC50 to compound IC50 for human HepG2 cells; type: functional
MCF7 [8] = experiment: Potency index, ratio of sunitinib IC50 to compound IC50 for human MCF7 cells; type: functional

IC50 (HepG2 [1]) [µM]	IC50 (MCF7 [2]) [µM]	SMILES	further results
2.79	4.01	COc1ccc2cc1Oc1ccc(cc1)C[C@H]1c3cc(c(OC)cc3CCN1C)Oc1c(OC(=O)c3cccnc3Cl)c(OC)cc3c1[C@H](C2)N(C)CC3	
5.52	8.55	CCOc1c(OC)cc2c3c1Oc1cc4c(cc1OC)CCN(C)[C@H]4Cc1ccc(cc1)Oc1cc(ccc1OC)C[C@@H]3N(C)CC2	
3.69	6.34	COc1ccc2cc1Oc1ccc(cc1)C[C@H]1c3cc(c(OC)cc3CCN1C)Oc1c(OC(=O)c3ccccc3)c(OC)cc3c1[C@H](C2)N(C)CC3	
1.69	1.99	COc1ccc2cc1Oc1ccc(cc1)C[C@H]1c3cc(c(OC)cc3CCN1C)Oc1c(OC(=O)c3cccc([N+](=O)[O-])c3)c(OC)cc3c1[C@H](C2)N(C)CC3	
2.11	2.99	COc1ccc2cc1Oc1ccc(cc1)C[C@H]1c3cc(c(OC)cc3CCN1C)Oc1c(OC(=O)c3ccc([N+](=O)[O-])cc3)c(OC)cc3c1[C@H](C2)N(C)CC3	
1.99	2.98	COc1ccc2cc1Oc1ccc(cc1)C[C@H]1c3cc(c(OC)cc3CCN1C)Oc1c(OC(=O)c3cccc(Cl)c3)c(OC)cc3c1[C@H](C2)N(C)CC3	
4.12	7.13	COc1ccc2cc1Oc1ccc(cc1)C[C@H]1c3cc(c(OC)cc3CCN1C)Oc1c(OC(=O)CCl)c(OC)cc3c1[C@H](C2)N(C)CC3	
0.55	3.45	COc1ccc2cc1Oc1ccc(cc1)C[C@H]1c3cc(c(OC)cc3CCN1C)Oc1c(OCc3ccccc3)c(OC)cc3c1[C@H](C2)N(C)CC3	Activity (HepG2 [3]): 55.6%; Activity (HepG2 [4]): 10.47%; Activity (HepG2 [5]): 28.16%; Activity (HepG2 [6]): 5.77%; Ratio IC50 (HepG2 [7]): 29.2; Ratio IC50 (MCF7 [8]): 7.37
4	6.56	C/C=C/C=C/C(=O)Oc1c(OC)cc2c3c1Oc1cc4c(cc1OC)CCN(C)[C@H]4Cc1ccc(cc1)Oc1cc(ccc1OC)C[C@@H]3N(C)CC2	
4.92	7.98	COc1ccc2cc1Oc1ccc(cc1)C[C@H]1c3cc(c(OC)cc3CCN1C)Oc1c(OC(C)C)c(OC)cc3c1[C@H](C2)N(C)CC3	
2.12	3.79	COc1ccc2cc1Oc1ccc(cc1)C[C@H]1c3cc(c(OC)cc3CCN1C)Oc1c(OC(=O)c3ccc(Cl)cc3)c(OC)cc3c1[C@H](C2)N(C)CC3	
3.59	6.12	COc1ccc2cc1Oc1ccc(cc1)C[C@H]1c3cc(c(OC)cc3CCN1C)Oc1c(OC(=O)/C=C/c3ccccc3)c(OC)cc3c1[C@H](C2)N(C)CC3	
15.7	16.6	CCOC(=O)C(CC)[N+]1(C)CCc2cc(OC)c3cc2[C@@H]1Cc1ccc(cc1)Oc1cc(ccc1OC)C[C@H]1c2c(cc(OC)c(OC)c2O3)CCN1C (stereo not given in full)	
3.79	7.34	CCCCOc1c(OC)cc2c3c1Oc1cc4c(cc1OC)CCN(C)[C@H]4Cc1ccc(cc1)Oc1cc(ccc1OC)C[C@@H]3N(C)CC2	
1.78	5.12	COc1ccc2cc1Oc1ccc(cc1)C[C@H]1c3cc(c(OC)cc3CCN1C)Oc1c(OC(=O)c3ccccc3OC(C)=O)c(OC)cc3c1[C@H](C2)N(C)CC3	
13.1	10.1	CCOC(=O)C(C)[N+]1(C)CCc2cc(OC)c3cc2[C@@H]1Cc1ccc(cc1)Oc1cc(ccc1OC)C[C@H]1c2c(cc(OC)c(OC)c2O3)CCN1C (stereo not given in full)	
1.32	3.51	COc1ccc2cc1Oc1ccc(cc1)C[C@H]1c3cc(c(OC)cc3CCN1C)Oc1c(OC(=O)c3ccccc3Cl)c(OC)cc3c1[C@H](C2)N(C)CC3	
3.88	7.02	CCC(Br)C(=O)Oc1c(OC)cc2c3c1Oc1cc4c(cc1OC)CCN(C)[C@H]4Cc1ccc(cc1)Oc1cc(ccc1OC)C[C@@H]3N(C)CC2 (stereo not given in full)	
10	14.6	COc1ccc2cc1Oc1ccc(cc1)C[C@H]1c3cc(c(OC)cc3CC[N+]1(C)CC(=O)[O-])Oc1c(OC)c(OC)cc3c1[C@H](C2)[N+](C)(CC(=O)[O-])CC3 (stereo not given in full)	
0.65	4.54	CCOc1ccc(C(=O)Oc2c(OC)cc3c4c2Oc2cc5c(cc2OC)CCN(C)[C@H]5Cc2ccc(cc2)Oc2cc(ccc2OC)C[C@@H]4N(C)CC3)cc1	
9.67	9.32	COc1ccc2cc1Oc1ccc(cc1)C[C@H]1c3cc(c(OC)cc3CC[N+]1(C)CCO)Oc1c(OC)c(OC)cc3c1[C@H](C2)[N+](C)(CCO)CC3 (stereo not given in full)	
2.95	2.57	COc1ccc2cc1Oc1ccc(cc1)C[C@H]1c3cc(c(OC)cc3CCN1C)Oc1c(OC(=O)c3ccccc3[N+](=O)[O-])c(OC)cc3c1[C@H](C2)N(C)CC3	
5.24	6.99	COc1ccc2cc1Oc1ccc(cc1)C[C@H]1c3cc(c(OC)cc3CCN1C)Oc1c(OC(C)=O)c(OC)cc3c1[C@H](C2)N(C)CC3	
1.98	4.17	COc1ccc2cc1Oc1ccc(cc1)C[C@H]1c3cc(c(OC)cc3CCN1C)Oc1c(OC(=O)c3cccnc3)c(OC)cc3c1[C@H](C2)N(C)CC3	
9.98	11.6	COc1ccc2cc1Oc1ccc(cc1)C[C@H]1c3cc(c(OC)cc3CC[N+]1(C)CC(=O)[O-])Oc1c(OC)c(OC)cc3c1[C@H](C2)N(C)CC3 (stereo not given in full)	

SMILES	IC50 (HepG2 [1]) [µM]	IC50 (MCF7 [2]) [µM]	further results
COc1ccc2cc1Oc1ccc(cc1)C[C@H]1c3cc(c(OC)cc3CCN1C)Oc1c(OC)c(OC)cc3c1[C@H](C2)N(C)CC3 [FANCHININ]	6.82	8.62	
COc1ccc2cc1Oc1ccc(cc1)C[C@H]1c3cc(c(OC)cc3CCN1C)Oc1c(O)c(OC)cc3c1[C@H](C2)N(C)CC3 [FANGCHINOLINE]	9.08	10.1	

Reference: ChEMBL document CHEMBL4041545, “Design, synthesis and biological activities of tetrandrine and fangchinoline derivatives as antitumer agents” (Bioorg Med Chem Lett, 2017)
